Experiments:
[1] = system: CVF-induced acute lung injury; assay: Cobra venom factor (CVF)-induced acute lung injury in the rat; assay type: in vivo
Experimental: Groups of rats were pretreated with either vehicle, SLN-OH (0.6 mg/Kg), or with SLX-OH (0.6 mg/Kg) 5 minutes prior to administration of either CVF or PBS. Each bar represents the mean of 6 animals and vertical lines represent the standard error of the mean.
Groups of rats were pretreated with either vehicle or Z at the indicated doses 5 minutes prior to administration of CVF or PBS. Each point represents the mean of 6 animals and vertical lines represent the standard error of the mean.
The intravenous injection of CVF produces intravascular complement activation which results in lung injury, defined as an increase in neutrophil accumulation within the lung, an increase in pulmonary vascular permeability and in lung hemorrhage. It is likely that intravascular complement activation results in the generation of a wide range of inflammatory mediators. Of particular relevance to the studies described here is generation of the split fifth complement component, C5a, which can stimulate the release of histamine from circulating basophils and tissue mast cells. […] The expression of selectins, including P-selectin, is a necessary first step in the process of leukocyte adherence to vascular endothelium.
Animals were dosed with different oligosaccharide preparations or phosphate buffered saline (PBS) five minutes before administration of cobra venom factor (20 units/Kg, i.v.). Included in this material was an aliquot of ^125 I-bovine serum albumin (0.5 μCi) and ^51 Cr labelled autologous red blood cells (0.5 μCi) for measuring plasma extravasation and hemorrhage respectively. Thirty minutes after administration of the cobra venom factor the animals were anesthetized with ketamine hydrochloride (10 mg/Kg) and exsanguinated via the posterior vena cava. The lung vasculature was then perfused through the right cardiac ventricle with 10 mL of PBS. The lungs were removed and the amount of radioactivity remaining within the tissue assessed with a gamma scintillation counter. Increased pulmonary vascular permeability was measured as the ratio of ^125 I in lung tissue compared with the amount present in 1 mL of venous blood obtained at the time of death. Lung hemorrhage was measured as the ratio of ^51 Cr in lung tissue compared with the amount present in 1 mL of venous blood obtained at the time of death. Neutrophil accumulation in lungs was determined by measuring the myeloperoxidase activity of lungs homogenized in PBS. Myeloperoxidase activity in lung supernatants was assayed by measuring the change in absorbance at 460 nm resulting from decomposition of H2 O2 in the presence of o-dianisidine

[2] = system: dermal and pulmonary models of inflammation; assay: Dermal and pulmonary models of inflammation: leukocyte accumulation; assay type: in vivo
[3] = system: myocardial ischemia-reperfusion injury in the cat heart; assay: Myocardial ischemia-reperfusion injury in cats: ischemic myocardium; assay type: in vivo, cat (male); conditions: 10 mg/Kg i.v.; control 35±4%, P<0.01
Experimental: (§1) A model of myocardial ischemia and reperfusion injury in cats was performed according to the methods of Tsao et al (Circulation 82:1402-1412 (1990), which is incorporated herein by reference. Briefly, male cats (2.5-3.5 Kg) were anesthetized with sodium pentobarbital (30 mg/Kg, i.v.). An intratracheal tube was inserted through a mid-line incision and all cats were given intermittent positive pressure ventilation by a Harvard small animal respirator. A polyethylene catheter was inserted into the external jugular vein and the right […] was cannulated and connected to a Statham P23AC pressure transducer for the measurement of arterial blood pressure. A midline thoracotomy was performed, the pericardium was opened and the heart was exposed. A 2-0 silk suture was carefully placed around the left anterior descending artery (LAD) 10-12 mm from its origin. After a 30 minute period of stabilization myocardial ischemia was initiated by complete ligation of the LAD for 1.5 hours of ischemia followed by 4.5 hours of reperfusion. Z (10 mg/Kg in PBS) or PBS alone were administered intravenously 10 minutes prior to the initiation of reperfusion.
Area at risk was determined by reocclusion of the LAD at the end of the reperfusion period followed by the injection of Evans blue dye into the left atrium. The area of risk was, therefore, determined by negative staining.

coronary artery rings = assay: Acetylcholine-induced endothelial dependent relaxation of coronary artery rings from ischemic-reperfused cats; assay type: in vivo, cat; conditions: 10 mg/Kg i.v.; control 22±6%, P<0.01
Experimental: as §1, with “After a 30 minute period of stabilization myocardial ischemia was initiated by complete ligation of the LAD for 1.5 hours of ischemia followed by 4.5 hours of reperfusion. Z (10 mg/Kg in PBS) or PBS alone were administered intravenously 10 minutes prior to the initiation of reperfusion.” left out
(§2) Endothelial dependent relaxation of coronary artery rings was determined by measuring the acetylcholine-induced relaxation of rings previously contracted with the thromboxane A2 mimetic U46619. Data are expressed as percentage relaxation. Creatinine kinase enzyme levels were measured immunochemically in plasma samples collected at the end of the reperfusion period. The adherence of PMNs to sections of coronary artery was measured in vitro using fluorescene labelled autologous cat neutrophils.

[4] = system: IgA immune complex induced lung injury; assay: IgA immune complex-induced acute lung injury in the rat; assay type: in vivo, rat (male Long-Evans); conditions: conclusion in words
Experimental: Groups of rats were dosed with either vehicle, SLN-OH (100 μpg), or with SLX-OH (100 μg) […] post induction of inflammation. Each bar represents the mean of 6 animals and vertical lines represent the standard error of the mean.
Adult male (300 g) specific pathogen-free Long-Evans rats purchased from Charles River Labs (Portage, Mich.) were employed in the studies. For the induction of IgG immune complex pulmonary inflammation rabbit polyclonal IgG rich in antibody to bovine serum albumin (antiBSA) was purchased from Organon Teknika (Westchester, PA). Intraperitoneal ketamine (10 mg/Kg) was administered for anesthesia. 2.5 mg of anti-BSA in a volume of 300 μl was instilled intratracheally via a small intratracheal catheter during inspiration after surgical exposure of the trachea. Intravenous injection of 10 mg BSA was injected intravenously to generate immune complex formation. Trace amounts of ^125 I-BSA and ^51 Cr-RBC were administered with the BSA as markers for plasma and RBC extravasation respectively. Rats were sacrificed 4 h later and lung injury was assessed by the ratio of radiolabelled albumin in the lungs relative to the circulation (permeability), the ratio of RBC in the lungs relative to the circulation (hemorrhage) and the amount of myeloperoxidase activity in a lung homogenate (neutrophil accumulation). For induction of IgA immune complex induced lung injury 1.2 mg of a murine myeloma IgA protein specific for dinitrophenol (DNP) was instilled intratracheally and 3.3 mg DNP-bovine serum albumin injected intravenously. Lung injury was assessed in the same manner described for IgG-induced lung injury.
SLX-OH, Z, the non-fucosylated control oligosaccharide SLN, or an equivalent volume of PBS were injected intravenously in three equally divided doses at 2, 2.5, and 3 h following deposition of immune complexes. This schedule for injections was selected since it coincides with the time during which rapid expression of E-selectin occurs in the pulmonary vasculature.

[5] = system: coronary vascular endothelium; assay: Adherence of cat PMNs to coronary endothelium in vitro; assay type: cell-based
Experimental: as §2

creatinine kinase = assay: Plasma creatinine kinase after myocardial ischemia-reperfusion in cats; assay type: in vivo, cat; conditions: 10 mg/Kg i.v.; control 25±3, P<0.01
Experimental: as §1, with “After a 30 minute period of stabilization myocardial ischemia was initiated by complete ligation of the LAD for 1.5 hours of ischemia followed by 4.5 hours of reperfusion. Z (10 mg/Kg in PBS) or PBS alone were administered intravenously 10 minutes prior to the initiation of reperfusion.” left out
as §2

[6] = dose range 0.15 to 1.5 mg/Kg (FIG. 17)

Structure (SMILES)	effect on CVF-induced permeability, hemorrhage, MPO / lung injury ([1]; in words, prior to CVF, 30 minutes)	inhibition of leukocyte accumulation [2]	extent of myocardial ischemia, of the area at risk [3] [%]	endothelial dependent relaxation to acetylcholine (coronary artery rings) [%]	effect on IgA immune complex-induced neutrophil accumulation and pathological sequelae [4]	adhesion of cat PMNs to thrombin stimulated coronary vascular endothelium ([5]; 250μM, thrombin 2 unit/mL)	adherence of PMNs to coronary endothelium from treated animals ([5]; endothelium from treated animals versus control animals)	plasma concentration of creatinine kinase (creatinine kinase) [IU/mg protein]	reduction of hemorrhage [1, 6] [%]	reduction of neutrophil MPO content [1, 6] [%]	reduction of permeability values [1, 6] [%]	dose at which protective effects plateau ([1]; rat, in vivo) [mg/kg]
CC(=O)NC1C(O)OC(CO)C(OC2OC(CO)C(O)C(OC3(C(=O)O)CC(O)C(NC(C)=O)C(C(O)C(O)CO)O3)C2O)C1O (stereo not drawn) [SLN, reference compound]	did not inhibit CVF-induced neutrophil accumulation or CVF-induced lung injury											
CCO[C@@H]1O[C@H](CO)[C@H](O)[C@H](O[C@@H]2O[C@H](CO)[C@@H](O[C@@H]3O[C@H](CO)[C@H](O)[C@H](O[C@]4(C(=O)O)C[C@H](O)[C@@H](NC(C)=O)[C@H]([C@H](O)[C@H](O)CO)O4)[C@H]3O)[C@H](O[C@@H]3O[C@@H](C)[C@@H](O)[C@@H](O)[C@@H]3O)[C@H]2NC(C)=O)[C@H]1O [Z, Ethyl(sodium(5-acetamido-3,5-dideoxy-α-D-glycero-D-galacto-2-nonulopyanosylonate))-(2-3)-O-(β-D-galactopyranosyl)-(1-4)-O-((α-L-fucopyranosyl)-(1-3))-O-(2-acetamido-2-deoxy-β-D-glucopyranosyl)-(1-3)-O-β-D-galactopyranoside]		do not provide evidence of the ability of Z to inhibit leukocyte accumulation	6±1	73±7	not IgA	blocked the adhesion of cat PMNs	less than that determined in control animals	7±1	47	49	67	0.6
